The supplement of paper PMC10307832

What was measured:
Assay in all cases: relative viability (nuclei count vs DMSO), 5 days (fraction); higher = more cells survive
[1] = compound: C=CCNC1=C2C[C@@H](C)C[C@H](OC)[C@H](O)[C@@H](C)/C=C(\C)[C@H](OC(N)=O)[C@@H](OC)/C=C\C=C(/C)C(=O)NC(=CC1=O)C2=O [17-AAG] + C[C@@H](Oc1cc(-c2cnn(C3CCNCC3)c2)cnc1N)c1c(Cl)ccc(F)c1Cl [Crizotinib] (partner 1 µM)
Method in brief: (§1)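 For relative viability, nuclei counts in treated wells were divided by those in vehicle wells. Lung cancer cell lines had been pin-tool dosed in 1536-well plates the day after seeding and cultured for 5 days, then fixed and stained in one step (final 0.05% Triton X-100, 1% formaldehyde, 1 ug/ml Hoechst) and imaged at 4×. Doses were one drug alone or a fixed anchor-drug dose plus five library-drug doses (not always all listed) in √10 steps, and values are duplicate-plate medians.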

[2] = compound: C=CCNC1=C2C[C@@H](C)C[C@H](OC)[C@H](O)[C@@H](C)/C=C(\C)[C@H](OC(N)=O)[C@@H](OC)/C=C\C=C(/C)C(=O)NC(=CC1=O)C2=O [17-AAG] + CS(=O)(=O)N1CCN(Cc2cc3nc(-c4cccc5[nH]ncc45)nc(N4CCOCC4)c3s2)CC1 [Pictilisib] (partner 1 µM)
Method in brief: as §1

[3] = compound: C=CCNC1=C2C[C@@H](C)C[C@H](OC)[C@H](O)[C@@H](C)/C=C(\C)[C@H](OC(N)=O)[C@@H](OC)/C=C\C=C(/C)C(=O)NC(=CC1=O)C2=O [17-AAG] + O=C(CCCCCCC(=O)Nc1ccccc1)NO [Vorinostat] (partner 1 µM)
Method in brief: as §1

[4] = compound: C=CCNC1=C2C[C@@H](C)C[C@H](OC)[C@H](O)[C@@H](C)/C=C(\C)[C@H](OC(N)=O)[C@@H](OC)/C=C\C=C(/C)C(=O)NC(=CC1=O)C2=O [17-AAG] + Cc1nc(Nc2ncc(C(=O)Nc3c(C)cccc3Cl)s2)cc(N2CCN(CCO)CC2)n1 [Dasatinib] (partner 0.075 µM)
Method in brief: as §1

| Cell Line | relative viability ([1]; first compound 0.00128 µM) | relative viability ([1]; first compound 0.004048 µM) | relative viability ([1]; first compound 0.0128 µM) | relative viability ([1]; first compound 0.04048 µM) | relative viability ([1]; first compound 0.128 µM) | relative viability ([2]; first compound 0.00128 µM) | relative viability ([2]; first compound 0.004048 µM) | relative viability ([2]; first compound 0.0128 µM) | relative viability ([2]; first compound 0.04048 µM) | relative viability ([2]; first compound 0.128 µM) | relative viability ([3]; first compound 0.00128 µM) | relative viability ([3]; first compound 0.004048 µM) | relative viability ([3]; first compound 0.0128 µM) | relative viability ([3]; first compound 0.04048 µM) | relative viability ([3]; first compound 0.128 µM) | relative viability ([4]; first compound 0.00128 µM) | relative viability ([4]; first compound 0.004048 µM) | relative viability ([4]; first compound 0.0128 µM) | relative viability ([4]; first compound 0.04048 µM) | relative viability ([4]; first compound 0.128 µM) |
| --- | --- | --- | --- | --- | --- | --- | --- | --- | --- | --- | --- | --- | --- | --- | --- | --- | --- | --- | --- | --- |
| NCI-H2087 | 0.861 | 0.66 | 0.321 | 0.213 | 0.148 | 0.867 | 0.651 | 0.356 | 0.229 | 0.175 | 0.996 | 0.656 | 0.252 | 0.116 | 0.116 | 0.872 | 0.49 | 0.0992 | 0.13 | 0.0882 |
| NCI-H2126 | 1.08 | 1.02 | 1.01 | 0.951 | 0.43 | 0.509 | 0.533 | 0.492 | 0.316 | 0.284 | 0.865 | 0.933 | 0.782 | 0.199 | 0.227 | 0.596 | 0.515 | 0.202 | 0.22 | 0.243 |
| NCI-H2170 | 1.29 | 1.19 | 0.959 | 0.588 | 0.203 | 0.279 | 0.284 | 0.167 | 0.153 | 0.175 | 0.837 | 0.827 | 0.336 | 0.169 | 0.143 | 0.623 | 0.663 | 0.275 | 0.123 | 0.111 |
| NCI-H2228 | 0.528 | 0.245 | 0.176 | 0.174 | 0.141 | 0.346 | 0.153 | 0.128 | 0.148 | 0.102 | 0.691 | 0.588 | 0.168 | 0.167 | 0.12 | 0.46 | 0.119 | 0.0679 | 0.089 | 0.0837 |
| NCI-H2347 | 0.747 | 0.791 | 0.738 | 0.486 | 0.317 | 0.671 | 0.478 | 0.508 | 0.717 | 0.43 | 0.569 | 0.557 | 0.524 | 0.329 | 0.379 | 0.308 | 0.248 | 0.216 | 0.176 | 0.118 |
| NCI-H2405 | 0.868 | 0.837 | 0.922 | 0.303 | 0.163 | 0.521 | 0.248 | 0.175 | 0.179 | 0.164 | 1.08 | 0.994 | 0.391 | 0.209 | 0.193 | 0.195 | 0.173 | 0.167 | 0.128 | 0.149 |
| NCI-H3122 | 0.285 | 0.258 | 0.233 | 0.246 | 0.173 | 0.489 | 0.375 | 0.195 | 0.194 | 0.161 | 0.934 | 0.816 | 0.219 | 0.111 | 0.0733 | 0.854 | 0.754 | 0.0689 | 0.0681 | 0.0701 |
| PC-3 [JPC-3] | 0.956 | 0.99 | 0.833 | – | 0.91 | 0.795 | 0.791 | 0.727 | – | 0.586 | 1 | 0.819 | 0.795 | 0.503 | 0.8 | 1.02 | 0.966 | 1 | – | 0.815 |
| PC-14 | 0.944 | 0.855 | 0.732 | 0.176 | 0.124 | 0.654 | 0.219 | 0.057 | 0.067 | 0.0563 | 0.683 | 0.464 | 0.0532 | 0.081 | 0.056 | 0.179 | 0.0725 | 0.0375 | 0.0586 | 0.0476 |
| RERF-LC-KJ | 0.894 | 0.831 | 0.901 | 0.616 | 0.232 | 0.591 | 0.688 | 0.324 | 0.242 | 0.21 | 0.796 | 0.686 | 0.475 | 0.321 | 0.222 | 0.742 | 0.833 | 0.276 | 0.266 | 0.248 |
| SK-LU-1 | 0.888 | 0.435 | 0.242 | 0.232 | 0.176 | 0.558 | 0.374 | 0.199 | 0.127 | 0.141 | 0.86 | 0.556 | 0.293 | 0.253 | 0.199 | 0.154 | 0.0796 | 0.0621 | 0.0687 | 0.0526 |
| SK-MES-1 | 1.02 | 1.01 | 0.822 | 0.224 | 0.144 | 0.414 | 0.387 | 0.139 | 0.134 | 0.1 | 1.1 | 1.03 | 0.514 | 0.182 | 0.179 | 0.358 | 0.249 | 0.11 | 0.106 | 0.101 |
| SW 1573 | 0.764 | 0.872 | 0.687 | 0.167 | 0.106 | 0.549 | 0.531 | 0.206 | 0.19 | 0.104 | 0.782 | 1.01 | 0.241 | 0.128 | 0.0675 | 0.699 | 0.461 | 0.135 | 0.136 | 0.0753 |
| UMC-11 | 0.717 | 0.58 | 0.399 | 0.148 | 0.0804 | 0.824 | 0.809 | 0.662 | 0.219 | 0.143 | 0.467 | 0.363 | 0.343 | 0.229 | 0.222 | 0.464 | 0.455 | 0.376 | 0.232 | 0.162 |
